Measured values: patent US11878973B2, “Bicyclic compounds and their uses” (NOVARTIS AG, priority 2021, dated 2024)
Read-outs that look alike come from different tables or passages of the source.

Key:
WRN helicase = WRN helicase (Homo sapiens (Human), UniProt Q14191); test: In vitro enzymatic activity assay on WRN helicase (DNA dependent ATPase assay, ADP-Glo); assay type: biochemical; conditions: geometric means of at least 2 determinations; read-out: WRN ATPase Activity (IC50)
Description: An ATPase assay was set up to measure the DNA dependent ATP hydrolysis activity of WRN helicase. This assay was used also to assess the inhibition properties of compounds of the invention on DNA dependent WRN ATPase activity.
The core helicase motif of the WRN protein (aa N517-P1238) was produced for this assay (protein production as described above). […] The ADP-Glo assay kit (Promega, Madison, WI) allowing the quantification of ADP produced in ATP hydrolysis reactions was used for setting up this assay.
Time course experiments were first performed in order to determine the best enzymatic assay conditions (including buffer conditions, reaction time and concentrations of protein, ATP and DNA substrates). A typical reaction consists of 10 nM WRN protein, 0.2 nM FLAP26, and 300 micromolar ATP in the following assay buffer: 30 mM Tris pH7.5, 2 mM MgCl2, 0.02% BSA, 50 mM NaCl, 0.1% pluronic F127 prepared in DNAse free water. To evaluate the inhibition properties of compounds of the invention, serial dilutions were prepared in DMSO (10 half log dilutions from a 10 mM DMSO solution). […] The reaction was started by addition of 2.5 microliters of FLAP26 at 0.4 nM and incubated for 30 minutes at room temperature. The reaction was stopped with the addition of 5 microliters of the first ADP-Glo reagent and incubated for one hour to remove the excess amount of ATP. Afterwards, 10 microliters of ATP detection reagent was added and incubated for an additional hour before reading. Luminescence output was recorded using Tecan 1000 reader, with 5 minutes delay before reading. Each concentration of compound was tested in duplicates in the assay plate.
Following normalization of activity values for the wells to % inhibition (% inhibition=[(high control-sample)/(high control-low control)]×100), IC50 fitting was carried out from the duplicate determinations present on each plate according to [4]. Data analysis can also be carried out using commercially available software designed to derive IC50 values using 4-parameter fits (e.g. GraphPad Prism, XL fit). The reported IC50 values are the geometrical means of at least 2 independent replicates.

SW48 cells = test: Proliferation assay SW48 (CellTiterGlo, 96 hours)
DLD1-WRN-KO cells = test: Proliferation assay DLD1-WRN-KO (CellTiterGlo, 96 hours; off-target effects); conditions: read-out: Proliferation Assay DLD1-WRN-KO (GI50)
Description: The WRN-knockdown insensitive colon carcinoma cell line DLD-1 (RRID: CVCL_0248) was obtained from the Korean Cell Line Bank (KCLB), and used to generate a derivative in which the endogenous WRN gene copies were knocked out by CRISPR-mediated editing using standard CRISPR methods. The resulting cell line, DLD1-WRN—KO, was used to assess potential off-target compound effects.
All cells were maintained at 37° C. in a humidified 5% CO2 incubator.
For data analysis, the assay background signal that was determined in wells containing medium, but no cells, was subtracted from all other data points prior to further calculations. The extent of growth inhibition and potential cell kill was assessed by comparing the ATP levels (measured using CellTiterGlo, Promega) in compound-treated cells with those present at the time of compound addition. […] 100%, 0% and −100% signify absence of growth inhibition, growth stasis, and complete cell kill, respectively. Compound concentrations leading to half-maximal growth inhibition (G150) and residual cell viability at the highest tested compound concentration (Data (cmax), expressed in percent) were routinely calculated. Data analysis can also be carried out using commercially available software designed to derive IC50 values using 4-parameter fits (e.g. GraphPad Prism, XL fit). The reported GI50 values are the geometrical means of at least 2 independent replicates.

[1] = Homo sapiens, SW48, read-out: Proliferation Assay SW48 (GI50)

Sequence of WRN helicase (Q14191 517-1238): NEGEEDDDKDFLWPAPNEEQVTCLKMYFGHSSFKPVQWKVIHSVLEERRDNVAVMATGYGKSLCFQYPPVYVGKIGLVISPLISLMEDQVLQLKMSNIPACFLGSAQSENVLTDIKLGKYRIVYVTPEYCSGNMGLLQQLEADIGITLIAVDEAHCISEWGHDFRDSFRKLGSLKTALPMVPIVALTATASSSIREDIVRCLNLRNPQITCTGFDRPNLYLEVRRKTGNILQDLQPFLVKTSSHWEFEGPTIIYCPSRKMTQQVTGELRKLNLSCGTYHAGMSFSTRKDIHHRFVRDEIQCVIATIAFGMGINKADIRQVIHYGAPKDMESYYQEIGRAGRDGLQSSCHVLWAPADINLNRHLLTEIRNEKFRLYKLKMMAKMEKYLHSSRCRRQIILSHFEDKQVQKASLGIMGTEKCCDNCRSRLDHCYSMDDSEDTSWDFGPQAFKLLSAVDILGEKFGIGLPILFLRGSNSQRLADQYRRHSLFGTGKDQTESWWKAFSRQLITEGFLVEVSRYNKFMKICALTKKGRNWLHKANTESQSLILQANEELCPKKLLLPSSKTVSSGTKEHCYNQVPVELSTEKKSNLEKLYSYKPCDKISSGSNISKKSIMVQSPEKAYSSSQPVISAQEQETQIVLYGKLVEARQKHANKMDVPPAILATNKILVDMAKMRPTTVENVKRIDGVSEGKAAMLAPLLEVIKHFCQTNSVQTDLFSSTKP

Structure (SMILES) | IC50 (WRN helicase) | GI50 (SW48 cells; [1]) | GI50 (DLD1-WRN-KO cells; Homo sapiens) | GI50 (SW48 cells; read-out: Proliferation Assay SW48 (GI50), SW48 cell line, geometric means of at least 2 determinations) | GI50 (DLD1-WRN-KO cells; DLD1-WRN-KO cell line, geometric means of at least 2 determinations)
CCc1c(N2CCN(C(=O)c3nccc(OC(F)(F)F)c3O)CC2)c(=O)n2nc(C3=CCOCC3)nc2n1CC(=O)Nc1ccc(C(F)(F)F)cc1C [Example 67, 2-(2-(3,6-dihydro-2H-pyran-4-yl)-5-ethyl-6-(4-(3-hydroxy-4-(trifluoromethoxy)picolinoyl)piperazin-1-yl)-7-oxo-[1,2,4]triazolo[1,5-a]pyrimidin-4(7H)-yl)-N-(2-methyl-4-(trifluoromethyl)phenyl)acetamide] | 150 nM | 190 nM | > 10000 nM |  | 
CCc1c(N2CCN(C(=O)c3ncnc(C)c3O)[C@@H]3CC[C@@H]32)c(=O)n2nc(C3=CCOCC3)nc2n1CC(=O)Nc1ccc(C(F)(F)F)cc1Cl (single isomer, unassigned) [Example 131] | 110 nM |  |  | 30 nM | > 10000 nM
CCc1c(N2CCN(C(=O)c3ncccc3O)CC2)c(=O)n2nc(N3CCOCC3)nc2n1CC(=O)Nc1ccc(C(F)(F)F)cc1Cl [Example 2, N-(2-chloro-4-(trifluoromethyl)phenyl)-2-(5-ethyl-6-(4-(3-hydroxypicolinoyl)piperazin-1-yl)-2-morpholino-7-oxo-[1,2,4]triazolo[1,5-a]pyrimidin-4(7H)-yl)acetamide] | 80 nM | 190 nM | > 10000 nM |  | 
CCc1c(N2CCN(C(=O)c3nccc(C)c3O)CC2)c(=O)n2nc(C3=CCOCC3)nc2n1CC(=O)Nc1ccc(C(F)(F)F)cc1 [Example 75, 2-(2-(3,6-dihydro-2H-pyran-4-yl)-5-ethyl-6-(4-(3-hydroxy-4-methylpicolinoyl)piperazin-1-yl)-7-oxo-[1,2,4]triazolo[1,5-a]pyrimidin-4(7H)-yl)-N-(4-(trifluoromethyl)phenyl)acetamide] | 50 nM | 80 nM | > 10000 nM |  | 
CCc1c(N2CCN(C(=O)c3ncccc3O)CC2)c(=O)n2nc(N3C[C@@H](F)[C@@H](F)C3)nc2n1CC(=O)Nc1ccc(C(F)(F)F)cc1C [Example 23, 2-(2-((3R,4S)-3,4-difluoropyrrolidin-1-yl)-5-ethyl-6-(4-(3-hydroxypicolinoyl)piperazin-1-yl)-7-oxo-[1,2,4]triazolo[1,5-a]pyrimidin-4(7H)-yl)-N-(2-methyl-4-(trifluoromethyl)phenyl)acetamide] | 260 nM | 1540 nM | > 10000 nM |  | 
CCc1c(N2CCN(C(=O)c3ncnc(C)c3O)CC2)c(=O)n2nc(C3=CCOCC3)nc2n1CC(=O)Nc1ccc(Br)cc1Cl [Example 106, N-(4-bromo-2-chlorophenyl)-2-(2-(3,6-dihydro-2H-pyran-4-yl)-5-ethyl-6-(4-(5-hydroxy-6-methylpyrimidine-4-carbonyl)piperazin-1-yl)-7-oxo-[1,2,4]triazolo[1,5-a]pyrimidin-4(7H)-yl)acetamide] | 60 nM | 110 nM | > 10000 nM |  | 
CCc1c(N2CCN(C(=O)c3ncnc(C)c3O)CC2)c(=O)n2nc(C3=CCOCC3)nc2n1CC(=O)Nc1ccc(C(F)(F)F)cc1 [Example 73, 2-(2-(3,6-dihydro-2H-pyran-4-yl)-5-ethyl-6-(4-(5-hydroxy-6-methylpyrimidine-4-carbonyl)piperazin-1-yl)-7-oxo-[1,2,4]triazolo[1,5-a]pyrimidin-4(7H)-yl)-N-(4-(trifluoromethyl)phenyl)acetamide] | 70 nM | 200 nM | > 10000 nM |  | 
Cc1nc(C(F)(F)F)ccc1NC(=O)Cn1c(C)c(N2CCN(C(=O)c3ncccc3O)CC2)c(=O)n2nc(C3=CCOCC3)nc12 [Example 129, 2-(2-(3,6-dihydro-2H-pyran-4-yl)-6-(4-(3-hydroxypicolinoyl)piperazin-1-yl)-5-methyl-7-oxo-[1,2,4]triazolo[1,5-a]pyrimidin-4(7H)-yl)-N-(2-methyl-6-(trifluoromethyl)pyridin-3-yl)acetamide] | 500 nM | 2550 nM | > 10000 nM |  | 
